Settings: male, SCID, mouse, in vivo, 1 h
Experimental: At the end of the experiment, the levels of 5 in the tumors and organs of the 5-treated mice are determined. […] This metabolite has the same retention time as the metabolite observed in the plasma (vide supra). […] The animals in the VN/124-1-treated group are sacrificed 1 h after the last VN/124-1 administration, and tumor, liver and testis are harvested and snap frozen in liquid nitrogen. Tissue samples are homogenized in phosphate buffer (pH=7.4, […]). […] The residue is reconstituted in 100 μL of the HPLC mobile phase, filtered through 0.2 μm Teflon filters and then analyzed by HPLC as described above.

With `C[C@]12CC[C@H](O)CC1=CC[C@@H]1[C@@H]2CC[C@]2(C)C(n3cnc4ccccc43)=CC[C@@H]12` [Compound 5, 3β-Hydroxy-17-(1H-benzimidazol-1-yl)androsta-5,16-diene] the “concentration in the s.c. tumors” value was 39.0±8.4 μg/mg tissue.

From patent US7875599B2, “C-17-heteroaryl steroidal CYP17 inhibitors/antiandrogens, in vitro biological activities, pharmacokinetics and antitumor activity” (University of Maryland, priority 2005, dated 2011)
